Measured values from PMC10314895, “Targeted protein degradation reveals BET bromodomains as the cellular target of Hedgehog pathway inhibitor-1” (Nature Communications, 2023).

Legend:
Type in all cases: binding
BRD4 [1] = biological target: T1, BRD4 (Homo sapiens, UniProt O60885); experiment: BromoKd affinity assay (Eurofins Discovery)
BRD3 [2] = biological target: T2, BRD3 (Homo sapiens, UniProt Q15059); experiment: BromoKd affinity assay (Eurofins Discovery)
BRD2 [3] = biological target: T3, BRD2 (Homo sapiens, UniProt P25440); experiment: BromoKd affinity assay (Eurofins Discovery); parameters: second bromodomain BD2, BRD2(2)
Target sequence in this assay (P25440 344-453 limits assumed): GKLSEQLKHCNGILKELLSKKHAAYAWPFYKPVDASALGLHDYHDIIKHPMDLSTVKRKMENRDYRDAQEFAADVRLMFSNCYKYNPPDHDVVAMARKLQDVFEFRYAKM

BRD2 [4] = biological target: T3, BRD2; experiment: BromoKd affinity assay (Eurofins Discovery); cellular degradation competed by HPI-1
Target sequence in this assay (P25440 whole entry): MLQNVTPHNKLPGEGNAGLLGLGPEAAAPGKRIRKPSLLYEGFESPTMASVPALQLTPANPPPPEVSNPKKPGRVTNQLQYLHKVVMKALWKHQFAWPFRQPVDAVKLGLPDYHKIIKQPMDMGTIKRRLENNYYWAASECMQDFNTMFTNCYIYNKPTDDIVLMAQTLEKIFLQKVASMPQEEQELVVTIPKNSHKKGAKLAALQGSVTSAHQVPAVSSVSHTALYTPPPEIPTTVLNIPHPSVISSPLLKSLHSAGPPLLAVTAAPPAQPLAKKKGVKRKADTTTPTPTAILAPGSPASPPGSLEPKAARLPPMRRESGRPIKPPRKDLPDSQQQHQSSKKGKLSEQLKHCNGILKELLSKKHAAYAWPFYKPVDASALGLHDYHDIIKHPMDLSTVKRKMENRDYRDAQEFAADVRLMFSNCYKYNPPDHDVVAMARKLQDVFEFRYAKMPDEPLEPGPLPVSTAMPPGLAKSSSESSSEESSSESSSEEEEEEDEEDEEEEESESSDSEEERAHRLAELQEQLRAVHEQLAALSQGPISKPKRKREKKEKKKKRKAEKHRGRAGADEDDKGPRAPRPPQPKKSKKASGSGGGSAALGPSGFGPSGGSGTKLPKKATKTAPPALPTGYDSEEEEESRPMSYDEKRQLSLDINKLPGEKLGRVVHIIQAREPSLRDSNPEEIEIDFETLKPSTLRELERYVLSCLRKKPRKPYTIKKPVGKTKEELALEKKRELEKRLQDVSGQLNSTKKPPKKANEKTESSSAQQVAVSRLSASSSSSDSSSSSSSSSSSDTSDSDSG

BRD4 [5] = biological target: T1, BRD4; experiment: as above
BRD3 [6] = biological target: T2, BRD3; experiment: as above

T2 sequence (Q15059 2-726): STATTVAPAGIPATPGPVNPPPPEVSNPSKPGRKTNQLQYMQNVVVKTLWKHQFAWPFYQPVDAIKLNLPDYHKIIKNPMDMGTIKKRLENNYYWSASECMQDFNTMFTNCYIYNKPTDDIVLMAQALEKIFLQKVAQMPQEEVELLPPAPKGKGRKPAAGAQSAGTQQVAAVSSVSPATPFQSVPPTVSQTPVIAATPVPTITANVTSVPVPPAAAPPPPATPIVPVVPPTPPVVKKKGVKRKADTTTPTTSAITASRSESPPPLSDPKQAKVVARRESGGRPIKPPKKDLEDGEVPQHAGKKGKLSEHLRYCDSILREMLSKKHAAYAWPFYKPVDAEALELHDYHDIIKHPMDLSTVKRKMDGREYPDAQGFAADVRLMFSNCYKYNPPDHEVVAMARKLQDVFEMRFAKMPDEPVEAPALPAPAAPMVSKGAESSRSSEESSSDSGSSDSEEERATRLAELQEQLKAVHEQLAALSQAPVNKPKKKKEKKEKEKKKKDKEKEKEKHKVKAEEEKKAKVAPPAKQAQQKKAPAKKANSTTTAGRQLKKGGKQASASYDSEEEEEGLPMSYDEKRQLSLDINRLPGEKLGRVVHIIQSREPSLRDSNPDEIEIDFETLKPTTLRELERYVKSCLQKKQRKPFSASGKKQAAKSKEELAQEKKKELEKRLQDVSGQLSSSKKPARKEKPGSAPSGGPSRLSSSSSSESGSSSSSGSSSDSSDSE

Kd (BRD4 [1]) [nM]	Kd (BRD3 [2]) [nM]	Kd (BRD2 [3]) [nM]	Kd (BRD2 [4]) [nM]	Kd (BRD4 [5]) [nM]	Kd (BRD3 [6]) [nM]	Compound
~15	~15	17				COCCOC(=O)C1=C(C)NC2=C(C(=O)CC(c3ccccc3OC)C2)C1c1cccc(O)c1 (stereo not drawn) [HPI-1]
			~200	~200	~200	COCCOC(=O)C1=C(C)NC2=C(C(=O)CC(c3ccccc3OC)C2)C1c1cccc(OCc2cn(CCCCCCOc3cccc4c3C(=O)N(C3CCC(=O)NC3=O)C4=O)nn2)c1 (stereo not drawn) [HPP-9]
